System: cool season plant species
Assay: B2 Post-emergence efficacy Test 2, cool season plant species
Format: in vivo
Conditions: 15 days after application, 0=no damage, 100=total kill
Summary of the method: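 Herbicidal effect rated visually 0 (no damage) to 100 (complete kill) at 15 days post-treatment. Post-emergence spray at 12 days used an IF50 formulation with 0.2% v/v Genapol XO80 adjuvant; glasshouse 24/18 or 20/16 °C, 16 h light, 65% humidity.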

In the case of `Cc1nn(C)c(=O)c(-c2c(F)ccc(Cl)c2CCc2ccc(Cl)cc2)c1OC(=O)C(C)C` [Compound 1.089], the “Herbicidal activity (0-100 scale) ALOMY” value (15 g/Ha) is reported as 20, the “Herbicidal activity (0-100 scale) ALOMY” value (30 g/Ha) is reported as 50 and the “Herbicidal activity (0-100 scale) ALOMY” value (60 g/Ha) is reported as 50. The “Herbicidal activity (0-100 scale) ALOMY” value (125 g/Ha) was 80, the “Herbicidal activity (0-100 scale) ALOMY” value (250 g/Ha) was 80 and the “Herbicidal activity (0-100 scale) ALOMY” value (500 g/Ha) was 90. The “Herbicidal activity (0-100 scale) AVEFA” value (15 g/Ha) was 30, the “Herbicidal activity (0-100 scale) AVEFA” value (30 g/Ha) was 70 and the “Herbicidal activity (0-100 scale) AVEFA” value (60 g/Ha) was 70. For the same compound, the “Herbicidal activity (0-100 scale) AVEFA” value (125 g/Ha) was 80, the “Herbicidal activity (0-100 scale) AVEFA” value (250 g/Ha) was 90 and the “Herbicidal activity (0-100 scale) AVEFA” value (500 g/Ha) was 90. For the same compound, the “Herbicidal activity (0-100 scale) BEAVA” value (15 g/Ha) was 90, the “Herbicidal activity (0-100 scale) BEAVA” value (30 g/Ha) was 80 and the “Herbicidal activity (0-100 scale) BEAVA” value (60 g/Ha) was 80. The “Herbicidal activity (0-100 scale) BEAVA” value (125 g/Ha) was 80, the “Herbicidal activity (0-100 scale) BEAVA” value (250 g/Ha) was 90 and the “Herbicidal activity (0-100 scale) BEAVA” value (500 g/Ha) was 90. For the same compound, the “Herbicidal activity (0-100 scale) BROTE” value (15 g/Ha) was 0, the “Herbicidal activity (0-100 scale) BROTE” value (30 g/Ha) was 0 and the “Herbicidal activity (0-100 scale) BROTE” value (60 g/Ha) was 10. The “Herbicidal activity (0-100 scale) BROTE” value (125 g/Ha) was 30, the “Herbicidal activity (0-100 scale) BROTE” value (250 g/Ha) was 60 and the “Herbicidal activity (0-100 scale) BROTE” value (500 g/Ha) was 70. The “Herbicidal activity (0-100 scale) BRSNN” value (15 g/Ha) was 80, the “Herbicidal activity (0-100 scale) BRSNN” value (30 g/Ha) was 80 and the “Herbicidal activity (0-100 scale) BRSNN” value (60 g/Ha) was 90. For the same compound, the “Herbicidal activity (0-100 scale) BRSNN” value (125 g/Ha) was 90, the “Herbicidal activity (0-100 scale) BRSNN” value (250 g/Ha) was 90 and the “Herbicidal activity (0-100 scale) BRSNN” value (500 g/Ha) was 90. For the same compound, the “Herbicidal activity (0-100 scale) CHEAL” value (15 g/Ha) was 80, the “Herbicidal activity (0-100 scale) CHEAL” value (30 g/Ha) was 90 and the “Herbicidal activity (0-100 scale) CHEAL” value (60 g/Ha) was 90. For the same compound, the “Herbicidal activity (0-100 scale) CHEAL” value (125 g/Ha) was 100, the “Herbicidal activity (0-100 scale) CHEAL” value (250 g/Ha) was 100 and the “Herbicidal activity (0-100 scale) CHEAL” value (500 g/Ha) was 100. For the same compound, the “Herbicidal activity (0-100 scale) GALAP” value (15 g/Ha) was 10, the “Herbicidal activity (0-100 scale) GALAP” value (30 g/Ha) was 20 and the “Herbicidal activity (0-100 scale) GALAP” value (125 g/Ha) was 30. For the same compound, the “Herbicidal activity (0-100 scale) GALAP” value (250 g/Ha) was 30, the “Herbicidal activity (0-100 scale) GALAP” value (500 g/Ha) was 90 and the “Herbicidal activity (0-100 scale) HORVW” value (15 g/Ha) was 10. The “Herbicidal activity (0-100 scale) HORVW” value (30 g/Ha) was 10, the “Herbicidal activity (0-100 scale) HORVW” value (60 g/Ha) was 20 and the “Herbicidal activity (0-100 scale) HORVW” value (125 g/Ha) was 20. For the same compound, the “Herbicidal activity (0-100 scale) HORVW” value (250 g/Ha) was 30, the “Herbicidal activity (0-100 scale) HORVW” value (500 g/Ha) was 60 and the “Herbicidal activity (0-100 scale) KCHSC” value (15 g/Ha) was 10. For the same compound, the “Herbicidal activity (0-100 scale) KCHSC” value (30 g/Ha) was 20, the “Herbicidal activity (0-100 scale) KCHSC” value (60 g/Ha) was 50 and the “Herbicidal activity (0-100 scale) KCHSC” value (125 g/Ha) was 60. The “Herbicidal activity (0-100 scale) KCHSC” value (250 g/Ha) was 60, the “Herbicidal activity (0-100 scale) KCHSC” value (500 g/Ha) was 60 and the “Herbicidal activity (0-100 scale) LOLPE” value (15 g/Ha) was 40. The “Herbicidal activity (0-100 scale) LOLPE” value (30 g/Ha) was 70, the “Herbicidal activity (0-100 scale) LOLPE” value (60 g/Ha) was 80 and the “Herbicidal activity (0-100 scale) LOLPE” value (125 g/Ha) was 90. The “Herbicidal activity (0-100 scale) LOLPE” value (250 g/Ha) was 90, the “Herbicidal activity (0-100 scale) LOLPE” value (500 g/Ha) was 90 and the “Herbicidal activity (0-100 scale) POAAN” value (15 g/Ha) was 20. The “Herbicidal activity (0-100 scale) POAAN” value (30 g/Ha) was 40, the “Herbicidal activity (0-100 scale) POAAN” value (60 g/Ha) was 70 and the “Herbicidal activity (0-100 scale) POAAN” value (125 g/Ha) was 90. For the same compound, the “Herbicidal activity (0-100 scale) POAAN” value (250 g/Ha) was 80, the “Herbicidal activity (0-100 scale) POAAN” value (500 g/Ha) was 70 and the “Herbicidal activity (0-100 scale) SINAR” value (15 g/Ha) was 70. For the same compound, the “Herbicidal activity (0-100 scale) SINAR” value (30 g/Ha) was 80, the “Herbicidal activity (0-100 scale) SINAR” value (60 g/Ha) was 90 and the “Herbicidal activity (0-100 scale) SINAR” value (125 g/Ha) was 90. The “Herbicidal activity (0-100 scale) SINAR” value (250 g/Ha) was 90, the “Herbicidal activity (0-100 scale) SINAR” value (500 g/Ha) was 90 and the “Herbicidal activity (0-100 scale) STEME” value (15 g/Ha) was 90. The “Herbicidal activity (0-100 scale) STEME” value (30 g/Ha) was 90, the “Herbicidal activity (0-100 scale) STEME” value (60 g/Ha) was 90 and the “Herbicidal activity (0-100 scale) STEME” value (125 g/Ha) was 90. For the same compound, the “Herbicidal activity (0-100 scale) STEME” value (250 g/Ha) was 90, the “Herbicidal activity (0-100 scale) STEME” value (500 g/Ha) was 90 and the “Herbicidal activity (0-100 scale) TRZAW” value (15 g/Ha) was 0. The “Herbicidal activity (0-100 scale) TRZAW” value (30 g/Ha) was 0, the “Herbicidal activity (0-100 scale) TRZAW” value (60 g/Ha) was 20 and the “Herbicidal activity (0-100 scale) TRZAW” value (125 g/Ha) was 30. The “Herbicidal activity (0-100 scale) TRZAW” value (250 g/Ha) was 60, the “Herbicidal activity (0-100 scale) TRZAW” value (500 g/Ha) was 70 and the “Herbicidal activity (0-100 scale) VERPE” value (15 g/Ha) was 70. The “Herbicidal activity (0-100 scale) VERPE” value (30 g/Ha) was 80, the “Herbicidal activity (0-100 scale) VERPE” value (60 g/Ha) was 90 and the “Herbicidal activity (0-100 scale) VERPE” value (125 g/Ha) was 90. For the same compound, the “Herbicidal activity (0-100 scale) VERPE” value (250 g/Ha) was 100 and the “Herbicidal activity (0-100 scale) VERPE” value (500 g/Ha) was 100.

From patent US12162840B2, “Herbicidal compositions” (SYNGENTA PARTICIPATIONS AG, priority 2018, dated 2024)
